Source: paper PMC9097457 (The Journal of Biological Chemistry, 2022)
Where a name gives a salt, the structure may show the parent alone.

What was measured:
heart mitochondria = assay: Conversion of [3H]-dGMP to [3H]-dGTP in isolated heart mitochondria; assay type: biochemical, rat
Description: (§1) Thus, we were interested in determining if the dGTP and dATP phosphorylation pathway in isolated mitochondria functioned similarly.
(§2) [^3H]-dGMP (1 μM) or [^3H]-dAMP (1 μM) was incubated in heart mitochondria as described for Figure 1 for the times shown, and their conversion to [^3H]-dGTP and [^3H]-dATP, respectively, determined in the presence and absence of Ap5A ([…]), a competitive inhibitor of adenylate kinase. Data are shown as a box plot of two independent experiments. The thickness of the lines indicates the spread of the duplicates. Ap5A, P1,P5-di(adenosine-5) pentaphosphate pentasodium salt.
(§3) To measure and compare phosphorylation and kinetics, a stable substrate concentration was necessary and EHNA (5 μM) ([50]) and I-H (2.0 μM) ([49]) were added to all mitochondrial incubations. […] The mitochondria were incubated in vitro for up to 2 h at 37 °C in a shaker bath. At the end of the incubation, reactions were terminated by addition of 10% TCA to an equal volume of incubation mixture (175 μl) and spun in a microcentrifuge to remove precipitates. The supernatant was neutralized with AG 11 A8 resin and filtered through a 0.2-μM nylon syringe filter. The neutralized and filtered supernatants were analyzed by ultra high pressure liquid chromatography (UPLC). Radioactivity was determined from aliquots of each sample and processed through a Beckman Coulter multipurpose liquid scintillation counter (model 6500).

adenylate kinase = assay: Conversion of [3H]-dAMP to [3H]-dATP in isolated heart mitochondria; assay type: biochemical, rat
Description: as §1, §2
as §3, with “The supernatant was neutralized with AG 11 A8 resin and filtered through a 0.2-μM nylon syringe filter.” left out

[1] = biological target: T1, adenosine deaminase (ADA) (Rattus norvegicus, UniProt Q920P6)
T1 sequence (Q920P6 1-352): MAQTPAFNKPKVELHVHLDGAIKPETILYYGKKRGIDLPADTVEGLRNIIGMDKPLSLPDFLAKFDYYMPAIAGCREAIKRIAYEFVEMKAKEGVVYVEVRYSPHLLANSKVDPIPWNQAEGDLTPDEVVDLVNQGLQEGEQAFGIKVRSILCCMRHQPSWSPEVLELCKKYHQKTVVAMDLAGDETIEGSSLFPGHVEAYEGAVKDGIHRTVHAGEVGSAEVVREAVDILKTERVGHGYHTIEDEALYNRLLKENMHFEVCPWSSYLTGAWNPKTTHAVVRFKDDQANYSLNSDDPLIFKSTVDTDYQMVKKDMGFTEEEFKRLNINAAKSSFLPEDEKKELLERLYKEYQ

[2] = biological target: T2, deoxyguanosine kinase (dGK) (Rattus norvegicus, UniProt A0A0G2K478); assay: Tissue-specific phosphorylation of [3H]-dG, [3H]-dA and [3H]-ETV in isolated mitochondria; assay type: biochemical; conditions: heart mitochondria
T2 sequence (A0A0G2K478 with tags, fused parts or gaps): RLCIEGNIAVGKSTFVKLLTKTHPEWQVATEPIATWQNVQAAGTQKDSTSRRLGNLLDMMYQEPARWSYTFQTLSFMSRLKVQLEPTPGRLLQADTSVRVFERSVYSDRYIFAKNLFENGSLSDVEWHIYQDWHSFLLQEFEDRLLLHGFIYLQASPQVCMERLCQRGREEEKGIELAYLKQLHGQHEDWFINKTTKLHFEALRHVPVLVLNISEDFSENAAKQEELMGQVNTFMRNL
Description: As noted in the Experimental procedures, these were added together to determine total phosphorylation.
as §3
(§4) Extent of phosphorylation was measured and analyzed by UPLC (Agilent 1290) with a reverse-phase C18 column (Zorbax Eclipse Plus C18; 3.0 × 150 mm, 1.8 micron) coupled with an inline diode array to detect UV signal at 254 nm and to an inline liquid scintillation counter (β-Ram) to quantitate radioactivity.
(§5) The radioactivity in each of these peaks was quantitated and totaled to provide the total amount of radioactivity in the phosphorylated products for each labeled precursor. This total was divided by the specific radioactivity of the precursor and expressed as pmol/mg protein/hr. The Kms were calculated from Lineweaver–Burk plots 1/Vo=Km/Vmax[S]+1/Vmax

[3] = biological target: T2, deoxyguanosine kinase (dGK); assay: Inhibition of [3H]-dA phosphorylation by competing deoxynucleosides in liver mitochondria; assay type: biochemical; conditions: IC50 values at 1 μM substrate
Description: as §3, §5

[4] = biological target: T2, deoxyguanosine kinase (dGK); assay: Kinetic analysis of [3H]-dG and [3H]-ETV phosphorylation and cross inhibition in heart mitochondria; assay type: biochemical; conditions: 40 μM ETV, data of Figure 4
Description: as §3, §5

isolated rat heart [5] = assay: Phosphorylation of [3H]-ETV, [3H]-dG and [3H]-dA in the isolated perfused rat heart (Langendorff)
Description: The phosphorylation of [^3H]-dG, [^3H]-dA, and [^3H]-ETV in isolated mitochondria depends on the activity of the mitochondrial dGK. To determine the degree of phosphorylation in a whole tissue, which would include the activity of the cytosolic dCK, we utilized an isolated rat heart Langendorff retrograde perfusion model. The breakdown and phosphorylation of [^3H]-ETV, [^3H]-dG, and [^3H]-dA (0.5 μM each) was measured in the perfusates and in the hearts after 60 min of perfusion (Fig. 9, A and B). […] However, the heart was still able to take up and maintain a small amount of dG to generate 0.18 ± 0.05 pmol/mg wet heart of phosphorylated dG during the 60-min perfusion. […] Despite the loss of [^3H]-dA from the perfusate, the heart took up and maintained enough dA to produce 0.48 ± 0.08 pmol/mg wet heart of phosphorylated [^3H]-dA products at 60 min (Fig. 9B). […] Note that [^3H]-dG and [^3H]-dG catabolites equilibrate rapidly between the perfusion buffer and the heart, while the phosphorylated forms of [^3H]-dG are retained solely in the heart tissue.
Figure 9 [^3H]-ETV and [^3H]-dG phosphorylation in a perfused rat heart. Rat hearts were removed and perfused using the Langendorff method for 1 h as described in Experimental procedures with 0.5 μM [^3H]-ETV, 0.5 μM [^3H]-dG), or 0.5 μM [^3H]-dA. […] A, the amount of exogenous [^3H]-parent compound in the perfusate as a function of time, plotted as a box plot of three independent experiments. See text for details. B, the amount of phosphorylated [^3H]-ETV, [^3H]-dG, or [^3H]-dA in the heart tissue after 60 min of perfusion with additions as noted in (A). See text for details.
Rat hearts were perfused by Langendorff retrograde perfusion apparatus with [^3H]-dG, [^3H]-dA, or [^3H]-ETV for 60 min under the conditions previously described ([25], [26], [51]). Perfused hearts were snap frozen into wafers by clamping the heart in liquid nitrogen, and the frozen tissue wafers were stored in −80 °C until processed as previously described for ([24]) UPLC analysis.

isolated rat heart [6] = assay: Breakdown of the [3H]-parent compound in the perfusate of the isolated perfused rat heart; assay type: in vitro ADME
Description: To determine the degree of phosphorylation in a whole tissue, which would include the activity of the cytosolic dCK, we utilized an isolated rat heart Langendorff retrograde perfusion model.
See text for details. […] See text for details.
Perfused hearts were snap frozen into wafers by clamping the heart in liquid nitrogen, and the frozen tissue wafers were stored in −80 °C until processed as previously described for ([24]) UPLC analysis.

[7] = biological target: T3, purine nucleoside phosphorylase (PNP) (Rattus norvegicus, UniProt P85973); conditions: 2.0 μM, kidney mitochondria, 60 min
T3 sequence (P85973 1-289): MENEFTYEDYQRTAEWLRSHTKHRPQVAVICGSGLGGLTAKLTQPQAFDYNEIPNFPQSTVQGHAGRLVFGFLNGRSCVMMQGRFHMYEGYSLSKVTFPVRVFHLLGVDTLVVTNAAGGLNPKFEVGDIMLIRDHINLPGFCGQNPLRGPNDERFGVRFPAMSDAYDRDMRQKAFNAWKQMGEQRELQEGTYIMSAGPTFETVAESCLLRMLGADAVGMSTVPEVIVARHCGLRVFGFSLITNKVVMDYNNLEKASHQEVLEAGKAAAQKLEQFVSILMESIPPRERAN

[8] = biological target: T2, deoxyguanosine kinase (dGK); assay: Pilot study: effect of 100 μM dG/dA nucleoside analogs on [3H]-dG or [3H]-dA phosphorylation in isolated mitochondria; assay type: biochemical; conditions: 100 μM analog; [3H]-dG 0.5 μM in liver, kidney, heart, brain mitochondria; [3H]-dA in liver mitochondria; 2 h; + EHNA 5 μM, I-H 2 μM
Description: Immucillin-H (I-H) (2 μM) and EHNA (5 μM) were added to the incubation mixture to prevent the breakdown of substrate by purine nucleoside phosphorylase (PNP) and adenosine deaminase (ADA) activity, respectively.
as §3, §4, §5

## Nc1ncnc2c1ncn2[C@@H]1O[C@H](COP(=O)([O-])OP(=O)([O-])OP(=O)([O-])OP(=O)([O-])OP(=O)([O-])OC[C@H]2O[C@@H](n3cnc4c(N)ncnc43)[C@H](O)[C@@H]2O)[C@@H](O)[C@H]1O.[Na+].[Na+].[Na+].[Na+].[Na+] [Ap5A, P1,P5-di(adenosine-5) pentaphosphate pentasodium salt]
Heart mitochondria; Ap5A 40 μM
  effect on phosphorylation of dGMP: not inhibited
Adenylate kinase; Ap5A 40 μM
  effect on conversion of [3H]-dAMP to [3H]-dATP: inhibited

## CCCCCCC(C(C)O)n1cnc2c(N)ncnc21.Cl (stereo not drawn) [EHNA, erythro-9-(2-Hydroxy-3-nonyl)-adenine hydrochloride]
[1]; EHNA 5 μM, 60 min
  effect on conversion of [3H]-dA to breakdown products: completely prevented this conversion
[2]
  effect on [3H]-dA or [3H]-dG phosphorylation: no effect

## C=C1[C@H](CO)[C@@H](O)C[C@@H]1n1cnc2c(=O)[nH]c(N)nc21 [ETV, entecavir]
[3]
  inhibition of dA phosphorylation more potent than ETV inhibition of dG phosphorylation: 500 fold
Heart mitochondria; ETV 40 μM
  effect on conversion of [3H]-dGMP to [3H]-dGTP: no effect
[4]
  rate of [3H]-dG phosphorylation to [3H]-dGTP in the presence of inhibitor: 12.4 ± 2.0 pmol/mg protein/hr
Isolated rat heart [5]; 0.5 μM labeled compound alone, 60-min perfusion
  phosphorylated product in heart: 0.25 ± 0.05 pmol/mg wet heart
Isolated rat heart [5]; 100 μM unlabeled ETV added to [3H]-dG + I-H, 60-min perfusion
  inhibition of [3H]-dG phosphorylation: 82.0 ± 0.7%
Isolated rat heart [5]; ETV 100 μM added to the perfusate
  effect on [3H]-dA phosphorylation: did not appear to inhibit

## O=c1[nH]cnc2c([C@@H]3N[C@H](CO)[C@@H](O)[C@H]3O)c[nH]c12 [I-H, forodesine hydrochloride]
[1]; Immucillin-H 2.0 μM, 60 min
  effect on [3H]-dA breakdown: no effect
[2]
  effect on [3H]-dA or [3H]-dG phosphorylation: no effect
Isolated rat heart [6]; I-H 2 μM
  effect on breakdown of dG in the perfusate: prevented most of the breakdown
[7]
  effect on conversion of [3H]-dG to breakdown products: completely prevented this conversion

## CC(C)OC(=O)OCOP(=O)(CO[C@H](C)Cn1cnc2c(N)ncnc21)OCOC(=O)OC(C)C.O=C(O)/C=C/C(=O)O [TDF, tenofovir disproxil fumarate]
[8]
  inhibition of the phosphorylation of dA and dG: ETV was shown to be the only dG/dA analog of the eight tested that showed significant inhibition

## Nc1ncnc2c1ncn2CCOCP(=O)(O)O [adefovir]
[8]
  inhibition of the phosphorylation of dA and dG: ETV was shown to be the only dG/dA analog of the eight tested that showed significant inhibition

## Nc1ncnc2c1ncn2[C@H]1C[C@H](O)[C@@H](CO)O1 [dA, deoxyadenosine]
[1]; heart mitochondria, initial studies
  stability in heart mitochondria: stable
[1]; mitochondria isolated from kidney, 60 min, no inhibitor
  conversion of [3H]-dA to breakdown products: 28%
Isolated rat heart [6]; 0.5 μM [3H]-dA, EHNA added
  parent compound in the perfusate by 60 min: complete loss
  parent compound remaining in the perfusate by 3 min: 47.5%
Isolated rat heart [6]; 0.5 μM [3H]-dA, in the presence of I-H
  parent compound in the perfusate by 3 min: completely lost
Isolated rat heart [5]; 0.5 μM [3H]-dA, I-H and EHNA in the perfusate, 60 min
  phosphorylated [3H]-dA products in heart: 0.48 ± 0.08 pmol/mg wet heart

## Nc1ncnc2c1ncn2[C@H]1C[C@H](O)[C@@H](COP(=O)(O)O)O1 [dAMP]
Adenylate kinase; 1 μM
  time to complete conversion to [3H]-dATP: ≤ 10 min

## Nc1nc2c(ncn2[C@H]2C[C@H](O)[C@@H](COP(=O)(O)O)O2)c(=O)[nH]1 [dGMP]
Heart mitochondria; 1 μM
  plateau, complete conversion of [3H]-dGMP to [3H]-dGTP: 123 ± 1 pmol/mg protein
Heart mitochondria; 1 μM precursor
  conversion to [3H]-dGTP at the 30-min time point: 106 ± 4 pmol/mg protein
Heart mitochondria; 30 min
  conversion of dGMP to dGTP faster than conversion of dG to dGTP: 4.6 times

## Nc1nc2c(ncn2[C@H]2CC[C@@H](CO)O2)c(=O)[nH]1 [dideoxyguanosine]
[8]
  inhibition of the phosphorylation of dA and dG: ETV was shown to be the only dG/dA analog of the eight tested that showed significant inhibition

## Nc1nc(O)c2ncn(COC(CO)CO)c2n1 [ganciclovir]
[8]
  inhibition of the phosphorylation of dA and dG: ETV was shown to be the only dG/dA analog of the eight tested that showed significant inhibition

## Nc1nc(=O)c2ncn([C@@H]3C[C@H](CO)[C@H]3CO)c2[nH]1 [lobucavir]
[8]
  inhibition of the phosphorylation of dA and dG: ETV was shown to be the only dG/dA analog of the eight tested that showed significant inhibition

## Nc1nc2c(ncn2CCC(CO)CO)c(=O)[nH]1 [penciclovir]
[8]
  inhibition of the phosphorylation of dA and dG: ETV was shown to be the only dG/dA analog of the eight tested that showed significant inhibition

## C[C@H](Cn1cnc2c(N)ncnc21)OCP(=O)(O)O [tenofovir]
[8]
  inhibition of the phosphorylation of dA and dG: ETV was shown to be the only dG/dA analog of the eight tested that showed significant inhibition
